Entries after “also recorded” stand apart in the source; their conditions may differ.
Key:
Format in all cases: in vivo, male Carworth Farms #1 mice or Sprague-Dawley rats
[1] = Anticonvulsant activity, both or unspecified seizure models; conditions: for Time of peak activity (Phase II): Table X, IP, challenge time; for Anticonvulsant activity (in words): running text
[2] = Maximal Electroshock Seizure Test; conditions: for Protection against Maximal Electroshock-induced seizures (in words): running text; for ED50: read-out: ED50 for inhibition of seizures, MES (Phase II); for Lowest active dose, MES (Phase I): Table V
[3] = Subcutaneous Pentylenetetrazol (Metrazol) Seizure Threshold Test; conditions: for Protection against Metrazol-induced seizures (in words): running text; for ED50: read-out: ED50 for inhibition of seizures, Metrazol (Phase II); for Lowest active dose, Metrazol (Phase I): Table V
[4] = Table X, IP, challenge time 30 min
[5] = Table X, IP, challenge time 4 hrs
[6] = Table X, SC, challenge time 30 min
[7] = Table X, SC, challenge time 4 hrs
[8] = Table X, IP, at time of peak activity
[9] = Mus musculus, Table X, IP, at time of peak activity

Compound	Lowest effective dose, MES (Phase I) [2, 4]	Lowest effective dose, MES (Phase I) [2, 5]	Lowest effective dose, MES (Phase I) [2, 6]	Lowest effective dose, MES (Phase I) [2, 7]	Lowest effective dose, Metrazol (Phase I) [3, 4]	Lowest effective dose, Metrazol (Phase I) [3, 5]	Lowest effective dose, Metrazol (Phase I) [3, 6]	Lowest effective dose, Metrazol (Phase I) [3, 7]	Time of peak activity (Phase II) [1] [h]	ED50 for inhibition of seizures, MES (Phase II) [2, 8] [mg/kg]	Anticonvulsant activity (in words) [1]	other results
Cu(II)2 (valproate)4	I	I	I	I	100 milligrams per kilogram of bod	I	I	600 milligrams per kilogram of bod				Onset and duration of anticonvulsant action (in words) [1]: rapid onset and short duration of activity following intraperitoneal administration; also recorded: prolonged onset of activity at a higher dose following subcutaneous administration; Protection against Maximal Electroshock-induced seizures (in words) [2]: ineffective against Maximal Electroshock seizures; Protection against Metrazol-induced seizures (in words) [3]: effective in protecting against Metrazol-induced seizures; also recorded: some inhibitory activity against Metrazol-induced seizures
CCC1(c2ccccc2)C(=O)NC(=O)NC1=O [Phenobarbital, reference compound]									1			ED50 ([2]; Mus musculus, ip): 22 mg/kg; ED50 ([3]; Mus musculus, ip): 13 mg/kg
CCC1(c2ccccc2)C(=O)[N-]C(=O)NC1=O.CCC1(c2ccccc2)C(=O)[N-]C(=O)NC1=O.CCC1(c2ccccc2)C(=O)[N-]C(=O)NC1=O.CCC1(c2ccccc2)C(=O)[N-]C(=O)NC1=O.O.O.[Cu+2].[Na+].[Na+] [Na2 [Cu(II)(Phenobarbital)4](H2 O)2]	30 milligrams per kilogram of bod	100 milligrams per kilogram of bod	30 milligrams per kilogram of bod	30 milligrams per kilogram of bod	30 milligrams per kilogram of bod	100 milligrams per kilogram of bod	30 milligrams per kilogram of bod	100 milligrams per kilogram of bod	6	25		ED50 for inhibition of seizures, Metrazol (Phase II) [3, 8]: 20 mg/kg
Cu(II)Carbamazepine(H2 O)2	10 milligrams per kilogram of bod	100 milligrams per kilogram of bod	30 milligrams per kilogram of bod	100 milligrams per kilogram of bod	30 milligrams per kilogram of bod	I	300 milligrams per kilogram of bod	300 milligrams per kilogram of bod			effective anticonvulsant	Protection against Metrazol-induced seizures (in words) [3]: did not potentiate Metrazol seizures
CCC1(CCC(C)C)C(=O)NC(=O)NC1=O [Amobarbital, reference compound]		I				I			0.25			minimal effective dose ([2]; Mus musculus, 0.5 h, read-out: Lowest effective dose, MES (Phase I)): 30 mg/kg; ED50 ([2]; Mus musculus, ip): 45 mg/kg; minimal effective dose ([3]; Mus musculus, 0.5 h, read-out: Lowest effective dose, Metrazol (Phase I)): 100 mg/kg; ED50 ([3]; Mus musculus, ip): 53 mg/kg
Cu(II)oxazepam	10 milligrams per kilogram of bod	I			1 milligrams per kilogram of bod	10 milligrams per kilogram of bod					protected against both types of seizure	Onset and duration of anticonvulsant action (in words) [1]: more prolonged in its action against Metrazol induced seizures
O=C1CN=C(c2ccccc2Cl)c2cc([N+](=O)[O-])ccc2N1.O=C1CN=C(c2ccccc2Cl)c2cc([N+](=O)[O-])ccc2N1.[Cl-].[Cl-].[Cu+2] [Cu(II)(Clonazepam)2 (Cl)2]	10 milligrams per kilogram of bod	I	1 milligrams per kilogram of bod	30 milligrams per kilogram of bod	1 milligrams per kilogram of bod	1 milligrams per kilogram of bod	1 milligrams per kilogram of bod	1 milligrams per kilogram of bod	0.5	25	very potent anticonvulsant	Potency or effectiveness relative to a comparator (in words) ([1]; in vivo): four times as effective as the parent drug; ED50 for inhibition of seizures, Metrazol (Phase II) [3, 8]: 0.05 mg/kg
O.O.O.O=C1[N-]C(=O)C(c2ccccc2)(c2ccccc2)N1.O=C1[N-]C(=O)C(c2ccccc2)(c2ccccc2)N1.[Cu+2] [Cu(II)(Dilantin)2 (H2 O)3]	30 milligrams per kilogram of bod	30 milligrams per kilogram of bod			100 milligrams per kilogram of bod	100 milligrams per kilogram of bod			4	13	did not potentiate but did block both types of seizures	Onset and duration of anticonvulsant action (in words) [1]: rapid onset and prolonged duration in inhibiting only Maximal Electroshock-induced seizures; Time of peak effect ([1]; Phase II): 4 h
Cu(II)Pyridoxylidene-L-phenylalaninate(H2 O)2											no activity	Lowest active dose, MES (Phase I) ([2]; IP, challenge time 30 min): I; Lowest active dose, MES (Phase I) ([2]; IP, challenge time 4 hrs): I; Lowest active dose, Metrazol (Phase I) ([3]; IP, challenge time 30 min): I; Lowest active dose, Metrazol (Phase I) ([3]; IP, challenge time 4 hrs): I
CCCC(CCC)C(=O)O [Valproic Acid, reference compound]									0.25			ED50 [2, 9]: 272 mg/kg; Protection against Maximal Electroshock-induced seizures (in words) [2]: weakly effective against Maximal Electroshock-induced seizures; ED50 [3, 9]: 149 mg/kg; Protection against Metrazol-induced seizures (in words) [3]: more effective against Metrazol-induced seizures
CCC1(c2ccccc2)C(=O)[N-]C(=O)NC1=O.CCC1(c2ccccc2)C(=O)[N-]C(=O)NC1=O.O.O.O.[Cu+2] [Cu(II)(Phenobarbital)2 (H2 O)3]	30 milligrams per kilogram of bod	30 milligrams per kilogram of bod	30 milligrams per kilogram of bod	30 milligrams per kilogram of bod	5 milligrams per kilogram of bod	5 milligrams per kilogram of bod	30 milligrams per kilogram of bod	30 milligrams per kilogram of bod	2	16		ED50 for inhibition of seizures, Metrazol (Phase II) [3, 8]: 10 mg/kg
Cc1ncc(CO)c(C=NC(C(=O)[O-])C(C)O)c1[O-].O.O.[Cu+2] [Cu(II)Pyridoxylidene-L-threoninate(H2 O)2]											more effective but only protected against the Metrazol-induced seizure	Lowest active dose, MES (Phase I) ([2]; IP, challenge time 30 min): I; Lowest active dose, MES (Phase I) ([2]; IP, challenge time 4 hrs): I; Lowest active dose, Metrazol (Phase I) ([3]; IP, challenge time 30 min): 30 mg/kg of body weight; Lowest active dose, Metrazol (Phase I) ([3]; IP, challenge time 4 hrs): 30 mg/kg of body weight
Cu(II)Pyridoxylidene-L-valinate(H2 O)											no activity	Lowest active dose, MES (Phase I) ([2]; IP, challenge time 30 min): I; Lowest active dose, MES (Phase I) ([2]; IP, challenge time 4 hrs): I; Lowest active dose, Metrazol (Phase I) ([3]; IP, challenge time 30 min): I; Lowest active dose, Metrazol (Phase I) ([3]; IP, challenge time 4 hrs): I

Reference: patent US4758555A, “Method for treating convulsions and epilepsy with organic copper compounds” (priority 1986, dated 1988)
